“And” between values parts separate entries of the source, which are not always exact repeats. Equal values may be shown once.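 Values below derive from 48-hour exposures of cells grown in 96-well plates, with endpoints linearly interpolated between the two concentrations bracketing the appropriate inhibition level. GI50 is the concentration that inhibits growth by half. TGI is the concentration that stops growth completely.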
How the values were obtained:
Experiment in all cases: NCI anticancer screen, dose series, 48 h
OVCAR-5 ovarian = test system: OVCAR-5 ovarian
HOP-92 NSCLC = test system: HOP-92 NSCLC
OVCAR-8 ovarian = test system: OVCAR-8 ovarian
U251 CNS = test system: U251 CNS
SK-MEL-28 melanoma = test system: SK-MEL-28 melanoma
NCI-H23 lung = test system: NCI-H23 lung
SN12C renal = test system: SN12C renal
SW-620 colon = test system: SW-620 colon
UO-31 renal = test system: UO-31 renal

Compound | TGI (OVCAR-5 ovarian) | GI50 (HOP-92 NSCLC) | GI50 (OVCAR-8 ovarian) | TGI (OVCAR-8 ovarian) | GI50 (U251 CNS) | TGI (U251 CNS) | GI50 (SK-MEL-28 melanoma) | TGI (SK-MEL-28 melanoma) | GI50 (NCI-H23 lung) | GI50 (SN12C renal) | TGI (SN12C renal) | GI50 (SW-620 colon) | TGI (SW-620 colon) | GI50 (UO-31 renal) | TGI (UO-31 renal) | GI50 (OVCAR-5 ovarian) | TGI (HOP-92 NSCLC) | TGI (NCI-H23 lung)
CCc1c2c(nc3cccc(N)c13)-c1cc3c(c(=O)n1C2)COC(=O)[C@]3(O)CC | 0.115 µM | 0.00331 µM | 0.00224 µM | > 100 µM | < 0.001 µM | 0.0348 µM and 0.03 µM | 0.113 µM and 0.034 µM | > 100 µM | 0.00327 µM | < 0.001 µM | 38.7 µM | 0.011 µM | > 100 µM | 51.6 nM | 0.397 µM |  |  | 
Fc1ccc(Nc2nccc(-c3c(-c4ccc(C(F)(F)F)cc4)nn4ncccc34)n2)cc1F | > 25 µM | > 25 µM | > 25 µM | > 25 µM | > 25 µM | > 25 µM | > 25 µM | > 25 µM | > 25 µM | > 25 µM | > 25 µM | > 25 µM | > 25 µM | > 25000 nM | > 25 µM | > 25 µM | > 25 µM | > 25 µM
Nc1nc(OCc2ccccc2)nc2[nH]ncc12 | 28.2 µM | > 100 µM | > 100 µM | > 100 µM | 18.9 µM | 42.2 µM | 17 µM | 35.2 µM | 15.7 µM | 13.9 µM | 28.5 µM | 18.9 µM | 39.3 µM | 20000 nM | > 100 µM | 11.9 µM | > 100 µM | 32.7 µM
O=[N+]([O-])c1ccc(CS(=O)Cc2ccccc2)cc1 (configuration not stated) | > 100 µM |  |  | > 100 µM |  | > 100 µM |  | > 100 µM |  |  | > 100 µM |  | > 100 µM |  | > 100 µM |  | > 100 µM | > 100 µM
O=c1oc2ccc(Cl)cc2c(=O)n1-c1ccc(I)cc1F | > 100 µM | 0.0571 µM | 0.323 µM | 15 µM | 0.262 µM | > 35.6 µM | 0.178 µM | 2.01 µM | 0.169 µM | 0.204 µM | 3.07 µM | 0.384 µM | 7.58 µM | 126 nM | 1.2 µM | 3.58 µM | 0.202 µM | 1.5 µM
CC(C)OC(=O)c1ccc2[nH]c(O)c(C(=Nc3ccc(N(C)C(=O)CN4CCN(C)CC4)cc3)c3ccccc3)c2c1 | 3.22 µM | 0.243 µM | 0.622 µM | 3.17 µM | 0.622 µM | 2.4 µM | 1.15 µM | 2.52 µM | 0.583 µM | 0.0977 µM | 1.6 µM | 0.369 µM | 1.62 µM | 278 nM | 1.31 µM | 1.51 µM | 1.71 µM | 2.42 µM
C[C@H](CS(C)(=O)=O)Nc1ncc2cc(Oc3ccc(F)cc3F)c(=O)n(C)c2n1 | > 25 µM | > 10.4 µM | > 25 µM | > 25 µM | > 25 µM | > 25 µM | > 25 µM | > 25 µM | > 25 µM | > 25 µM | > 25 µM | > 25 µM | > 25 µM | > 25000 nM | > 25 µM | > 25 µM | > 25 µM | > 25 µM
C=C(C)CCC(C)N1CCC(N2CCC(C(=O)NCCc3ccccc3)CC2)CC1 (configuration not stated) | > 100 µM | 13.4 µM | 27.8 µM | > 100 µM | 14.4 µM | 33 µM | 13.2 µM | 27.5 µM | 31.3 µM | 55.5 µM | > 100 µM | 24.7 µM | > 100 µM | 11000 nM | 25.3 µM | 78.9 µM | 62 µM | > 100 µM
CCOC(=O)c1cnn(-c2ccnc3c(C(F)(F)F)cccc23)c1N | > 100 µM | 29.6 µM | > 100 µM | > 100 µM | > 100 µM | > 100 µM | > 100 µM | > 100 µM | > 100 µM | > 100 µM | > 100 µM | > 100 µM | > 100 µM | > 100000 nM | > 100 µM | > 100 µM | > 100 µM | > 100 µM
CC1=CC(=O)C(C(C)=Nc2ccccc2Cl)C(=O)O1 (configuration not stated) | > 100 µM | 94.4 µM | > 100 µM | > 100 µM | > 100 µM | > 100 µM | > 100 µM | > 100 µM | > 100 µM | > 100 µM | > 100 µM | > 100 µM | > 100 µM | > 100000 nM | > 100 µM | > 100 µM | > 100 µM | > 100 µM
CCOC(=O)N1CCN(S(=O)(=O)c2oc(-c3ccc(Cl)cc3)nc2C#N)CC1 | 13.3 µM | 1.8 µM | 3.23 µM | 23.3 µM | 5.49 µM | 19.6 µM | 2.12 µM | 4.23 µM | 3.93 µM | 1.66 µM | 3.23 µM | 1.69 µM | 3.75 µM | 1540 nM | 2.88 µM | 3.92 µM | 3.75 µM | 15.1 µM
CCCCC[C@H]1C/C=C2/C(=O)C(Cl)=C[C@@H]2C/C=C\CCCC(=O)O[C@@H](CCCCC)C/C=C2/C(=O)C(Cl)=C[C@@H]2C/C=C\CCCC(=O)O1 | 2.94 µM | 0.314 µM | 0.38 µM | 1.59 µM | 0.291 µM | 0.652 µM | 0.407 µM | 1.01 µM | 0.34 µM | 0.482 µM | 2.72 µM | 0.512 µM | 1.77 µM | 269 nM | 0.508 µM | 0.689 µM | 0.687 µM | 0.838 µM
COc1ccc2c(c1)C(=O)c1c-2n(CCCN2CCOCC2)c(=O)c2ccccc12 | > 100 µM | 8.39 µM | 3.45 µM | > 100 µM | 2.01 µM | 11.6 µM | 11.2 µM | > 100 µM | 2.94 µM | 4.25 µM | > 100 µM | 2.31 µM | > 100 µM | 799 nM | 3.26 µM | 6.18 µM | > 57.5 µM | 10.1 µM
CCSc1nc(COC(=O)NC)c(COC(=O)NC)n1C | > 100 µM |  |  | > 100 µM |  | > 100 µM |  | > 100 µM |  |  | > 100 µM |  | > 100 µM |  | > 100 µM |  | > 90.6 µM | > 100 µM
Nc1nc(Nc2cccc(F)c2)nc2ccccc12 | 43.5 µM | 13.8 µM | 31.9 µM | > 100 µM | 16.8 µM | 34.6 µM | 15 µM | 29 µM | 24.1 µM | 32.8 µM | > 100 µM | 17.1 µM | 36.6 µM | 19000 nM | 61.2 µM | 17.4 µM | 38.5 µM | > 100 µM
CCc1c[nH]c2ncnc(N3CC[C@@](N)(CNC(=O)c4ccc(F)cc4F)C3)c12 | > 100 µM | 20.9 µM | 48.1 µM | > 100 µM | 46.4 µM | > 100 µM | 45.4 µM | > 100 µM | 26.4 µM | 32.1 µM | > 100 µM | 31.3 µM | > 100 µM | 33700 nM | > 100 µM | 80 µM | > 100 µM | > 100 µM
CC(C)(Br)C(=O)/C=C/c1ccccc1 | 19.7 µM |  |  | 5.2 µM |  | 20.5 µM |  | 28.9 µM |  |  | 22.5 µM |  | 6.79 µM |  | 3.68 µM |  | 18 µM | 5 µM
Oc1cc(Cl)ccc1Oc1ccc(Cl)cc1Cl | 12.1 µM | 2.11 µM | 2.81 µM | 9.18 µM | 2.73 µM | 10.1 µM | 3.09 µM | 10.4 µM | 2.07 µM | 3.12 µM | 11.4 µM | 3.51 µM | 12.7 µM | 2760 nM | 12 µM | 3.37 µM | 5.69 µM | 5.5 µM
Cn1cc(-c2ccc3c(c2)CCN3C(=O)Cc2cccc(C(F)(F)F)c2)c2c(N)ncnc21 | 30.2 µM | 1.7 µM | 4.47 µM | 40.5 µM | 2.69 µM | 17.7 µM | 4.72 µM | 21.4 µM | 4.43 µM | 2.48 µM | 19.6 µM | 4.89 µM | 20.8 µM | 673 nM | 14.3 µM | 12.2 µM | 9.2 µM | 24.2 µM
CC(=O)OC1C2(CC3N4C(=O)C5(CO)SSC4(CC31O)C(=O)N5C)OC(C)C(C)(C)C2=O (configuration not stated) | 0.208 µM | 0.0763 µM | < 0.0495 µM | 0.222 µM | < 0.01 µM |  | 0.0141 µM | 0.0696 µM | < 0.0371 µM | < 0.0114 µM | 0.05 µM | < 0.01 µM | 0.0136 µM | 95.2 nM | 1.05 µM | 0.0578 µM | 0.214 µM | 0.0932 µM
Clc1ccc2nc(Oc3ccccc3)cnc2c1 | > 100 µM | 14 µM | > 100 µM | > 100 µM | > 100 µM | > 100 µM | > 100 µM | > 100 µM | > 100 µM | > 100 µM | > 100 µM | > 100 µM | > 100 µM | > 100000 nM | > 100 µM | > 100 µM | > 100 µM | > 100 µM
